According to US7361769B2, “Heterocyclyls as selective melanin concentrating hormone receptor antagonists for the treatment of obesity and related disorders” (Schering Corporation, priority 2004, dated 2008):
pKi: −log10 of the molar value. Like-named read-outs stand apart in the source and are kept apart here.

Tests used:
MCH receptor = molecular target: T1, MCH receptor (Homo sapiens, UniProt Q99705); assay: MCH receptor binding assay ([125I]-MCH, SPA); details: membranes from CHO cells expressing the MCH receptor
T1 construct: expressed in transfected cells; host or cells: CHO cells (membrane preparation)
T1 sequence (Q99705 whole entry): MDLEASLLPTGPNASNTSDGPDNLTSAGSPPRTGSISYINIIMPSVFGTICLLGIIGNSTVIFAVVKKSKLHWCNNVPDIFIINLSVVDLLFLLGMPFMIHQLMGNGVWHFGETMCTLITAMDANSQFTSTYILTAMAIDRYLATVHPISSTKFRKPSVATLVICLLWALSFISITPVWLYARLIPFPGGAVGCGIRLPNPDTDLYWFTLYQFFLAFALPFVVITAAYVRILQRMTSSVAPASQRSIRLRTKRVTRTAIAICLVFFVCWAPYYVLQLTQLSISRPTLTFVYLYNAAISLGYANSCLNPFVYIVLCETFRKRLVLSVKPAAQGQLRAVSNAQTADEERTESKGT
Procedure: MCH Receptor Binding Assay:
Membranes from CHO cells expressing the MCH receptor were prepared by lysing cells with 5 mM HEPES for 15 min at 4 C. Cell lysates were centrifuged ([…], 15 min) and the pellet was re-suspended in 5 mM HEPES. For each 96-well plate (Microlite, Dynex Technologies), 1 mg of cell membranes were incubated with 10 mg of wheat germ agglutinin SPA beads (Amersham) for 5 min at 4 C in a volume of 10 ml of binding buffer (25 mM HEPES, 10 mM MGCl2, 10 mM NaCl, 5 mM MnCl2, 0.1% BSA). The membrane/bead mixture was centrifuged (1500×g, 3.5 min), the supernatant was aspirated, and the pellet was resuspended in 10 ml binding buffer. The centrifugation, aspiration and resuspension were then repeated. The membrane/bead mixture (100 μl) was then added to 96-well plates containing 50 μl of 500 pM [^125I]-MCH (NEN) and […] of the appropriate concentration of compound (4× the desired final concentration). Nonspecific binding was determined by including 1 μM MCH in the binding reaction. The binding reaction was incubated at room temperature for 2 h. Plates were then analyzed in a TOPCOUNT microplate scintillation counter (Packard). Data was analyzed and Ki values were determined using GraphPad Prism.

hERG channels = molecular target: T2, hERG channels (Homo sapiens, UniProt Q12809); assay: Herg-Rb two phase screen (rubidium efflux); format: cell-based; details: CHO cells expressing hERG, relative to complete block with 10 μM dofetilide; for herg-Rb 1.5 μg/mL (%): test article at 1.5 μg/ml; for herg-Rb 5 μg/mL (%): test article at 5 μg/ml
T2 construct: expressed in transfected cells
T2 sequence (Q12809 whole entry): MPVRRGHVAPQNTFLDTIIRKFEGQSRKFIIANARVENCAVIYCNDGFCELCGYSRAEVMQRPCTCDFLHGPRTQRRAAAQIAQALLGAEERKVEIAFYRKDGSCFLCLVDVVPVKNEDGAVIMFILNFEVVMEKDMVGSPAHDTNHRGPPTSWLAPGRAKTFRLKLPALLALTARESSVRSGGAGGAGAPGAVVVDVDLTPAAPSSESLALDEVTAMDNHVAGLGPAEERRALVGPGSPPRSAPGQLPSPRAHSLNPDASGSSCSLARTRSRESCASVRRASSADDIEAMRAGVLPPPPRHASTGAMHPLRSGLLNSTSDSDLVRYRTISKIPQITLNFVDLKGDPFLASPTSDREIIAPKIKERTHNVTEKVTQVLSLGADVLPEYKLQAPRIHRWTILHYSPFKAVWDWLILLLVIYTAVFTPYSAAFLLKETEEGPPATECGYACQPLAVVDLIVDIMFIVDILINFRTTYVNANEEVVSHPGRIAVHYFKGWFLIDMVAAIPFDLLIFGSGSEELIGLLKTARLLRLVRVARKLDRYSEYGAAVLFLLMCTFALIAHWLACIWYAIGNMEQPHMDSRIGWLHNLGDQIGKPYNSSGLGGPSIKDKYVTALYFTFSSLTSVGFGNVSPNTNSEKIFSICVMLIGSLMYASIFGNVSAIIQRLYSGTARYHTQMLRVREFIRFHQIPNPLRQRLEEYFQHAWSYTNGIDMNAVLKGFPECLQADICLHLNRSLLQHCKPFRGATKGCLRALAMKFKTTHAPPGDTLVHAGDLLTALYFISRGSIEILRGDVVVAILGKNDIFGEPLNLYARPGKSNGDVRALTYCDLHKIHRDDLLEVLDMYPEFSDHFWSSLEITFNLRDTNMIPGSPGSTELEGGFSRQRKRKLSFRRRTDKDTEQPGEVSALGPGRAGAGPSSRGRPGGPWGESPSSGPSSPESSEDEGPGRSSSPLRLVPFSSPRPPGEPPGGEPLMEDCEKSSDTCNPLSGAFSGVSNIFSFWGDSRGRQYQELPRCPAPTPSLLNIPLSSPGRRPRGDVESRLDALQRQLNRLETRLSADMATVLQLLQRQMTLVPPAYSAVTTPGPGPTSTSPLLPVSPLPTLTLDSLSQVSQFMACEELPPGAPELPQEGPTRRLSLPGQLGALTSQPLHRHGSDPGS
Procedure: Herg-Rb data (μg/mL) (%) was determined by the following two phase screen. The first phase is a cell-handling phase in which cells are loaded with rubidium, drugs are added and efflux initiated by KCl-depolarization. The second phase is measurement of rubidium content in cell supernatants that are collected at the end of the cell-handling phase. CHO cells expressing hERG in a stable manner are used for these studies. Cells are plated into 96-well dishes one day prior to study. After overnight culture, the normal tissue culture medium is removed and cells are loaded with rubidium for 3 hours in a HEPES-buffered physiological saline solution containing 5 mM rubidium chloride in place of potassium chloride. During the final 30 minutes of rubidium loading cells are pre-equilibrated with test articles at 1.5 μg/ml and 5 μg/ml. Cells are then washed with rubidium-free HEPES buffered physiological saline solution containing 5 mM KCl to remove all extracellular rubidium. The final step of the cell handling phase is to depolarize the cells in HEPES buffered physiological saline containing 50 mM KCl. This opens hERG channels and permits efflux of rubidium. Supernatants are collected after 5 minutes and rubidium content is measured using a flame atomic absorbance spectrometer with a robot for sampling from 96-well plates (ICR-8000, Aurora Biomed Inc., Vancouver, British Columbia). In cases where the channel is blocked the amount of rubidium efflux is reduced. Drug effects are calculated based on the difference between wells with no added compound and wells in which there is complete block of hERG channels with a well-known positive standard (10 μM dofetilide).

| SMILES | pKi (MCH receptor; read-out: Class (Ki)) | herg-Rb 1.5 μg/mL (%) (hERG channels) | herg-Rb 5 μg/mL (%) (hERG channels) | pKi (MCH receptor; read-out: Ki) |
| --- | --- | --- | --- | --- |
| NCc1ncc([C@@]23CC[C@H](N(CCCN4CC[C@@H](O)C4)C(=O)Nc4ccc(F)c(C(F)(F)F)c4)[C@@H]2C3)s1 [Example 20] | < 7.00 |  |  |  |
| O=C(Nc1ccc(F)c(Cl)c1)N(CCN1CCCC1)C1CC=C(c2ccc(CN3CCCC3)s2)CC1 (centres unmarked) [Example 4] | < 7.00 | −1% | 20% |  |
| O=C(Nc1ccc(F)c(Cl)c1)N(CCN1CCCC1)C1CC=C(c2ccc(CN3CC[C@H](O)C3)s2)CC1 (some centres unmarked) [Example 5] | 7.00 to 7.52 | 0% | 6% |  |
| CN(C)Cc1ncc(C2=CCC(N(CCN3CCCC3)C(=O)Nc3ccc(F)c(C(F)(F)F)c3)CC2)s1 (centres unmarked) [Example 8] | < 7.00 |  |  |  |
| C[C@@H]1CN(CCCN(C(=O)Nc2ccc(F)c(C(F)(F)F)c2)[C@@H]2CC[C@]3(c4cnc(CN)s4)CC23)[C@@H](C)CN1 (some centres unmarked) [Example 16] | > 7.52 | −11% | −8% |  |
| NCc1cnc(C2=CCC(N(CCN3CCCC3)C(=O)Nc3ccc(F)c(Cl)c3)CC2)s1 (centres unmarked) [Example 11] | > 7.52 | 9% | 14% |  |
| NCc1ncc([C@]23CC[C@@H](N(CCN4CC[C@H](O)C4)C(=O)Nc4ccc(F)c(C(F)(F)F)c4)[C@H]2C3)s1 [Example 13] | 7.00 to 7.52 | 13% | 8% |  |
| NCc1ncc([C@]23CC[C@@H](N(CCCN4CC[C@H](O)C4)C(=O)Nc4ccc(F)c(C(F)(F)F)c4)C2C3)s1 (some centres unmarked) [Example 15] | 7.00 to 7.52 | −4% | −4% |  |
| CN(C)Cc1ccc(C2=CCC(N(CCN3CCCC3)C(=O)Nc3ccc(F)c(Cl)c3)CC2)s1 (centres unmarked) [Example 2] | < 7.00 |  |  |  |
| NCc1ncc(C2=CCC(N(CCN3CCCC3)C(=O)Nc3ccc(F)c(Cl)c3)CC2)s1 (centres unmarked) [Example 7] | > 7.52 | −1% | 10% |  |
| NCc1ncc([C@]23CC[C@@H](N(CCN4CCCC4)C(=O)Nc4ccc(F)c(C(F)(F)F)c4)[C@H]2C3)s1 [Example 12] | < 7.00 | 13% | 16% |  |
| O=C(Nc1ccc(F)c(Cl)c1)N(CCN1CCCC1)C1CC=C(c2ccc(CN3CCC3)s2)CC1 (centres unmarked) [Example 3] | < 7.00 | −1% | 15% |  |
| NCc1ncc([C@@]23C[C@H](N(CCCN4CC[C@H](O)C4)C(=O)Nc4ccc(F)c(C(F)(F)F)c4)C[C@@H]2C3)s1 [Example 14] | < 7.00 |  |  |  |
| NCc1ncc([C@]23CC[C@@H](N(CCCN4CC[C@@H](O)C4)C(=O)Nc4ccc(F)c(C(F)(F)F)c4)C2C3)s1 (some centres unmarked) [Example 18] | > 7.52 | −5% | −4% |  |
| NCc1ccc(C2=CCC(N(CCN3CCCC3)C(=O)Nc3ccc(F)c(Cl)c3)CC2)s1 (centres unmarked) [Example 1] | > 7.52 | 22% | 26% | 8.10 |
| NCc1ncc([C@]23CC[C@@H](N(CCCN4CC5CC4CN5)C(=O)Nc4ccc(F)c(C(F)(F)F)c4)C2C3)s1 (some centres unmarked) [Example 17] | 7.00 to 7.52 | 0% | 14% |  |
| NCc1ncc(C2=CCC(N(CCN3CCCC3)C(=O)Nc3ccc(F)c(C(F)(F)F)c3)CC2)s1 (centres unmarked) [Example 10] | > 7.52 | 9% | 26% |  |
| C[C@@H]1CN(CCCN(C(=O)Nc2cc(Cl)nc(Cl)c2)[C@@H]2CC[C@]3(c4cnc(CN)s4)CC23)[C@@H](C)CN1 (some centres unmarked) [Example 19] | > 7.52 | −10% | 3% |  |
| CN(C)Cc1ncc(C2=CCC(N(CCN3CCCC3)C(=O)Nc3ccc(F)c(Cl)c3)CC2)s1 (centres unmarked) [Example 9] | < 7.00 |  |  |  |
| NCc1ncc([C@]23CC[C@@H](N(CCCN4CC[C@@H](O)C4)C(=O)Nc4ccc(F)c(C(F)(F)F)c4)[C@H]2C3)s1 [Example 21] | > 7.52 |  |  |  |
| CNCc1ccc(C2=CCC(N(CCN3CCCC3)C(=O)Nc3ccc(F)c(Cl)c3)CC2)s1 (centres unmarked) [Example 6] | > 7.52 |  |  |  |
